Patent US11560385B2, “Proteasome activity enhancing compounds” (Proteostasis Therapeutics, Inc., priority 2018, dated 2023)
pIC50: −log10 of the molar value.

Biological target: USP14 (Homo sapiens (Human), UniProt P54578)
Test: Usp14 inhibition assay (Example 57B, B-series compounds)
Type: biochemical
Details: IC50 class; average value from a minimum of two experimental determinations
Excerpt: Example 57B: Usp14 Inhibition Assay
The IC50 values in the Table below represent the average value from a minimum of two experimental determinations.

Chain of USP14 (P54578 whole entry, looked up): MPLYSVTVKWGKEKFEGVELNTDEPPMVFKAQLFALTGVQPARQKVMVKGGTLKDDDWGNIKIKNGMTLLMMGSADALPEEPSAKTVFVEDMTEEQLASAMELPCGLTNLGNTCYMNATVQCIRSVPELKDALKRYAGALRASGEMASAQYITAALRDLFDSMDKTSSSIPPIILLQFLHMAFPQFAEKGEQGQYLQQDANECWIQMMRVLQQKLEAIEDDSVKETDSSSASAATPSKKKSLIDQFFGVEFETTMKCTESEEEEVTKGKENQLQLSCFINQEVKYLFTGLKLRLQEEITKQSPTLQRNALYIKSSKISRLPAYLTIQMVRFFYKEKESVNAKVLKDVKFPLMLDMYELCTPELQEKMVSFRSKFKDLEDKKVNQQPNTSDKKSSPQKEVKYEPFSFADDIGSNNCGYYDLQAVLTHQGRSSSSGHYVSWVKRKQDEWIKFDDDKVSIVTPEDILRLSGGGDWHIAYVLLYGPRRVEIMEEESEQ

| SMILES | pIC50 |
| --- | --- |
| Cc1cc(C(=O)CN2[C@@H]3CC[C@@H]2CC(O)C3)c(C)n1-c1ccc(C#N)cc1 (stereo partly drawn) [Example 67B, 4-(3-(2-((1R,3s,5S)-3-hydroxy-8-azabicyclo[3.2.1]octan-8-yl)acetyl)-2,5-dimethyl-1H-pyrrol-1-yl)benzonitrile] | 6.30 to 7.30 |
| Cc1c(C(=O)CN2[C@@H]3CC[C@H]2[C@@H](O)C3)cc(CCCC2COC2)n1-c1ccc(C#N)cc1 (racemic) [Example 22B, (±)-4-(3-(2-((1R,2R,4S)-2-Hydroxy-7-azabicyclo[2.2.1]heptan-7-yl)acetyl)-2-methyl-5-(3-(oxetan-3-yl)propyl)-1H-pyrrol-1-yl)benzonitrile] | > 7.30 |
| Cc1c(C(=O)CN2C3CCC2[C@@H](O)C3)cc(CCCC2CC(C)(C)OC2=O)n1-c1ccc(C#N)cc1 (mixture of isomers) [Example 51B, (±)-4-(5-(3-(5,5-Dimethyl-2-oxotetrahydrofuran-3-yl)propyl)-3-(2-((1R,2R,4S)-2-hydroxy-7-azabicyclo[2.2.1]heptan-7-yl)acetyl)-2-methyl-1H-pyrrol-1-yl)benzonitrile] | > 7.30 |
| Cc1c(C(=O)CN2C3CCC2[C@@H](O)C3)cc(Cl)n1-c1ccc(C#N)cc1 (mixture of isomers) [Example 96B, (±)-4-(5-Chloro-3-(2-((2R)-2-hydroxy-7-azabicyclo[2.2.1]heptan-7-yl)acetyl)-2-methyl-1H-pyrrol-1-yl)benzonitrile] | 6.30 to 7.30 |
| Cc1c(C#N)c(C(=O)CN2C3CCC2[C@@H](O)C3)c(C)n1-c1ccc(C#N)cc1 (mixture of isomers) [Example 95B, (±)-1-(4-Cyanophenyl)-4-(2-((2R)-2-hydroxy-7-azabicyclo[2.2.1]heptan-7-yl)acetyl)-2,5-dimethyl-1H-pyrrole-3-carbonitrile] | < 6.30 |
| COCCCCc1cc(C(=O)CN2[C@@H]3CC[C@H]2[C@@H](O)C3)c(C)n1-c1ccc(C#N)cc1 (stereo in doubt) [Example 12B, (rel)-4-(3-(2-((1R,2R,4S)-2-Hydroxy-7-azabicyclo[2.2.1]heptan-7-yl)acetyl)-5-(4-methoxybutyl)-2-methyl-1H-pyrrol-1-yl)benzonitrile] | > 7.30 |
| Cc1c(C(=O)CN2C3CCC2CC3)cc(CC2CCS(=O)(=O)CC2)n1-c1ccc(Cl)cc1 [Example 25B, 2-(7-Azabicyclo[2.2.1]heptan-7-yl)-1-(1-(4-chlorophenyl)-5-((1,1-dioxidotetrahydro-2H-thiopyran-4-yl)methyl)-2-methyl-1H-pyrrol-3-yl)ethan-1-one] | 6.30 to 7.30 |
| Cc1cc(C(=O)CN2[C@@H]3CC[C@H]2[C@H](C)C3)c(C)n1-c1ccc(C#N)cc1 (racemic) [Example 122B, (±)-4-(2,5-Dimethyl-3-(2-((1S,2R,4R)-2-methyl-7-azabicyclo[2.2.1]heptan-7-yl)acetyl)-1H-pyrrol-1-yl)benzonitrile] | 6.30 to 7.30 |
| Cc1cc(C(=O)CN2C3CCC2(C)CC3)c(C)n1-c1ccc(C#N)cc1 [Example 125B, 4-(2,5-Dimethyl-3-(2-(1-methyl-7-azabicyclo[2.2.1]heptan-7-yl)acetyl)-1H-pyrrol-1-yl)benzonitrile] | 6.30 to 7.30 |
| Cc1c(C(=O)CN2C3CCC2[C@@H](O)C3)cc(/C=C/CCC#N)n1-c1ccc(C#N)cc1 (mixture of isomers) [Example 20B, (±)-4-(5-((E)-4-Cyanobut-1-en-1-yl)-3-(2-((2R)-2-hydroxy-7-azabicyclo[2.2.1]heptan-7-yl)acetyl)-2-methyl-1H-pyrrol-1-yl)benzonitrile] | > 7.30 |
| Cc1cc(C(=O)CN2C3CCC2[C@@H](O)C3)c(C)n1-c1cc(F)c(C#N)cc1F (mixture of isomers) [Example 107B, (±)-2,5-Difluoro-4-(3-(2-((2R)-2-hydroxy-7-azabicyclo[2.2.1]heptan-7-yl)acetyl)-2,5-dimethyl-1H-pyrrol-1-yl)benzonitrile] | 6.30 to 7.30 |
| Cc1c(F)c(C(=O)CN2C3CC4CC2CC(C3)O4)c(C)n1-c1ccc(C#N)c(F)c1 (racemic) [Example 116B, (±)-4-(3-(2-((1r,3r)-2-Oxa-6-azaadamantan-6-yl)acetyl)-4-fluoro-2,5-dimethyl-1H-pyrrol-1-yl)-2-fluorobenzonitrile] | 6.30 to 7.30 |
| Cc1nc(Cc2cc(C(=O)CN3C4CCC3[C@@H](O)C4)c(C)n2-c2ccc(C#N)cc2)cs1 (mixture of isomers) [Example 41B, (±)-4-(3-(2-((2R)-2-Hydroxy-7-azabicyclo[2.2.1]heptan-7-yl)acetyl)-2-methyl-5-((2-methylthiazol-4-yl)methyl)-1H-pyrrol-1-yl)benzonitrile] | > 7.30 |
| Cc1cc(C(=O)CN2C3CCCC2CC(O)C3)c(C)n1-c1ccc(C#N)cc1 [Example 85B, 4-(3-(2-((1R,3s,5S)-3-Hydroxy-9-azabicyclo[3.3.1]nonan-9-yl)acetyl)-2,5-dimethyl-1H-pyrrol-1-yl)benzonitrile] | 6.30 to 7.30 |
| Cc1c(C(=O)CN2C3CCC2[C@@H](O)C3)cc(C[C@H]2C[C@@H](C#N)C2)n1-c1ccc(C#N)cc1 (mixture of isomers) [Example 4B, (±)-4-(5-4(1s,3S)-3-cyanocyclobutyl)methyl)-3-(2-((1R,2R,4S)-2-hydroxy-7-azabicyclo[2.2.1]heptan-7-yl)acetyl)-2-methyl-1H-pyrrol-1-yl)benzonitrile] | > 7.30 |
| Cc1c(C(=O)CN2[C@@H]3CC[C@H]2[C@@H](O)C3)cc(CCCCC#N)n1-c1ccc(Cl)cc1 (racemic) [Example 29B, (±)-5-(1-(4-Chlorophenyl)-4-(2-((1R,2R,4S)-2-hydroxy-7-azabicyclo[2.2.1]heptan-7-yl)acetyl)-5-methyl-1H-pyrrol-2-yl)pentanenitrile] | > 7.30 |
| Cc1cc(C(=O)CN2C3CCC2[C@@H](O)C3)c(C)n1-c1ccc(C#N)c(F)c1F (mixture of isomers) [Example 99B, (±)-2,3-Difluoro-4-(3-(2-((2R)-2-hydroxy-7-azabicyclo[2.2.1]heptan-7-yl)acetyl)-2,5-dimethyl-1H-pyrrol-1-yl)benzonitrile] | < 6.30 |
| Cc1c(C(=O)CN2[C@@H]3CC[C@H]2[C@@H](O)C3)cc(CCCC2CCOCC2)n1-c1ccc(C#N)cc1 (racemic) [Example 2B, (±)-4-(3-(2-((1S,2S,4R)-2-Hydroxy-7-azabicyclo[2.2.1]heptan-7-yl)acetyl)-2-methyl-5-(3-(tetrahydro-2H-pyran-4-yl)propyl)-1H-pyrrol-1-yl)benzonitrile] | > 7.30 |
| COCCCCc1cc(C(=O)CN2[C@H]3CC[C@@H]2[C@H](O)C3)c(C)n1-c1ccc(C#N)cc1 (stereo in doubt) [Example 13B, (rel)-4-(3-(2-((1S,2S,4R)-2-Hydroxy-7-azabicyclo[2.2.1]heptan-7-yl)acetyl)-5-(4-methoxybutyl)-2-methyl-1H-pyrrol-1-yl)benzonitrile] | > 7.30 |
| Cc1cc(C(=O)CN2[C@@H]3C=C(C(F)(F)F)[C@H]2CC3)c(C)n1-c1ccc(C#N)cc1 (racemic) [Example 141B, (±)-4-(2,5-Dimethyl-3-(2-((1R,4S)-2-(trifluoromethyl)-7-azabicyclo[2.2.1]hept-2-en-7-yl)acetyl)-1H-pyrrol-1-yl)benzonitrile] | < 6.30 |
| Cc1c(C(=O)CN2[C@@H]3CC[C@H]2[C@@H](O)C3)cc(CC2CCC2)n1-c1ccc(C#N)cc1 (racemic) [Example 133B, (±)-4-(5-(Cyclobutylmethyl)-3-(2-((1R,2R,4S)-2-hydroxy-7-azabicyclo[2.2.1]heptan-7-yl)acetyl)-2-methyl-1H-pyrrol-1-yl)benzonitrile] | > 7.30 |
| Cc1c(C(=O)CN2[C@@H]3CC[C@H]2[C@@H](O)C3)cc(CCC2(C)COC2)n1-c1ccc(C#N)cc1 (racemic) [Example 55B, (±)-4-(3-(2-((1R,2R,4S)-2-Hydroxy-7-azabicyclo[2.2.1]heptan-7-yl)acetyl)-2-methyl-5-(2-(3-methyloxetan-3-yl)ethyl)-1H-pyrrol-1-yl)benzonitrile] | > 7.30 |
| Cc1cc(C(=O)CN2C3CC4CC2C(C3)O4)c(C)n1-c1ccc(C#N)cc1 (racemic) [Example 92B, (±)-4-(3-(2-((2R,3aS,5R,6aS)-Hexahydro-4H-2,5-methanofuro[3,2-b]pyrrol-4-yl)acetyl)-2,5-dimethyl-1H-pyrrol-1-yl)benzonitrile] | 6.30 to 7.30 |
| Cc1c(C(=O)CN2[C@@H]3CC[C@H]2[C@@H](O)C3)cc(/C=C/CC(C)(C)C#N)n1-c1ccc(C#N)cc1 (racemic) [Example 15B, (±)-4-(5-((E)-4-Cyano-4-methylpent-1-en-1-yl)-3-(2-((1R,2R,4S)-2-hydroxy-7-azabicyclo[2.2.1]heptan-7-yl)acetyl)-2-methyl-1H-pyrrol-1-yl)benzonitrile] | > 7.30 |
| Cc1c(C(=O)CN2C3CCC2[C@@H](O)C3)cc(C2CC2)n1-c1ccc(C#N)cc1 (mixture of isomers) [Example 98B, (±)-4-(5-Cyclopropyl-3-(2-((2R)-2-hydroxy-7-azabicyclo[2.2.1]heptan-7-yl)acetyl)-2-methyl-1H-pyrrol-1-yl)benzonitrile] | 6.30 to 7.30 |
| Cc1c(C(=O)CN2C3CCC2[C@@H](O)C3)cc(CCCC2(C)COC2)n1-c1ccc(C#N)cc1 (mixture of isomers) [Example 42B, (±)-4-(3-(2-((2R)-2-Hydroxy-7-azabicyclo[2.2.1]heptan-7-yl)acetyl)-2-methyl-5-(3-(3-methyloxetan-3-yl)propyl)-1H-pyrrol-1-yl)benzonitrile] | > 7.30 |
| Cc1cc(C(=O)CN2C3CCC2[C@@H]2COC[C@H]32)c(C)n1-c1ccc(C#N)cc1 (racemic) [Example 106B, (±)-4-(2,5-Dimethyl-3-(2-((3aR,4R,7S,7aS)-octahydro-4,7-epiminoisobenzofuran-8-yl)acetyl)-1H-pyrrol-1-yl)benzonitrile] | 6.30 to 7.30 |
| Cc1cc(C(=O)CN2[C@@H]3CC[C@H]2[C@H](C)[C@@H]3C)c(C)n1-c1ccc(C#N)cc1 [Example 138B, 4-(3-(2-((1R,2S,3R,4S)-2,3-Dimethyl-7-azabicyclo[2.2.1]heptan-7-yl)acetyl)-2,5-dimethyl-1H-pyrrol-1-yl)benzonitrile] | < 6.30 |
| CO[C@H]1C[C@H]2CC[C@@H]1N2CC(=O)c1cc(C)n(-c2ccc(C#N)cc2)c1C (racemic) [Example 70B, (±)-4-(3-(2-((1R,2R,4S)-2-Methoxy-7-azabicyclo[2.2.1]heptan-7-yl)acetyl)-2,5-dimethyl-1H-pyrrol-1-yl)benzonitrile] | 6.30 to 7.30 |
